In ChEMBL document CHEMBL3430912, “GSK Tres Cantos Anti-Kinetoplastid Screening (TCAKS) Data”:

Tests used:
Leishmania donovani [1] = experiment: GSK_TCAKS: pIC50 Leishmania donovani Imaging: Infected Macrophages. Assay plates (384-well) were prepared by adding 250nL of compound to each well. For single shot assay, the final compound concentration was 5 uM. […] Automated image analysis was performed with a script developed on Acapella High Content Imaging and Analysis Software (PerkinElmer). Output: Percent of infected macrophage cells were reported for each well.; assay type: functional, organism-based, Homo sapiens; details: THP-1
Leishmania donovani [2] = experiment: GSK_TCAKS: pIC50 Leishmania donovani Imaging: Amastigotes/Macrophages. Assay plates (384-well) were prepared by adding 250nL of compound to each well. For single shot assay, the final compound concentration was 5 uM. […] Automated image analysis was performed with a script developed on Acapella High Content Imaging and Analysis Software (PerkinElmer). Output: Average number of amastigotes per macrophage cell were reported for each well.; assay type: functional, organism-based, Homo sapiens; details: THP-1
[3] = tested on: Trypanosoma brucei brucei; experiment: GSK_TCAKS: pIC50 Trypanosoma brucei viability assay using luminiscence. Assay plates (1536-well) were prepared. T. brucei cultures were harvested and counted in a CASY cell counter. A parasite suspension was prepared at a final concentration of 5 * 10^4 cells/mL in complete HMI9 medium and 6uL was dispensed to all wells containing compounds using a Multidrop Combi dispenser. 6uL of HMI9 media with 0.4% DMSO were dispensed to control columns. Plates were incubated for 24 h at 37C, 5% CO2 then tempered for 10 min at room temperature. ATP content was quantified by adding 4 uL of CellTiter-Glo Reagent (Promega) according to the manufacturer's instructions. Luminescence was measured using a ViewLux.; assay type: functional, organism-based; details: Lister 427, CASY
Trypanosoma cruzi [4] = experiment: (§1) GSK_TCAKS: pIC50 Trypanosoma cruzi Imaging: Infected Cells. […] Cells were then washed once with PBS before infection. T. cruzi trypomastigotes, collected at days 5 to 8 after infection from LLC-MK2 parasite infected cultures, were allowed to swim out for 4h at 37C from a centrifuged pellet (2,500 rpm/10 min/room temperature). Trypomastigotes were then collected and counted in a CASY Cell Counter. Trypomastigotes, in supplemented DMEM, were added to H9c2 cultures in a multiplicity of infection of 1 and incubated for 18 h. Cells were washed once with PBS before incubation of the infected H9c2 monolayer with trypsin (Life-Technologies) to detach cells from the flask. Cells were counted in a CASY Cell Counter using a 150 um capillary and their density set at 5 * 10^4 cells per mL in supplemented assay DMEM. Infected H9c2 were dispensed into 384-well poly-lysine coated assay plates at 50uL per well using a Multidrop Combi dispenser. After seeding them, the plates were incubated at 37C, 5% CO2 for 72h. Cultures were then fixed and stained by addition of 50 uL of a solution containing 8% formaldehyde and 4 uM DRAQ5 DNA dye (BioStatus, UK) per well. […] Five images were collected per well for reliable statistical analysis. Automated image analysis was performed with a script developed on Acapella High Content Imaging and Analysis Software (PerkinElmer). Output: percentage of infected cells per well as a second infection marker.; assay type: functional, organism-based, Rattus norvegicus; details: H9c2, 4 h
Trypanosoma cruzi [5] = experiment: GSK_TCAKS: pIC50 Trypanosoma cruzi viability assay using beta-GAL activity. This assay was run at single shot at 5uM compound concentration per well. The biological reagents consisted of NIH-3T3 host cells and trypomastigotes parasitic cells; both cell types were set to a 3.3 * 10^5 cells/mL dilution in assay DMEM by means of a CASY cell counter device using a 60um capillary. 6 uL of the mixture were dispensed per well (about 1 * 10^3 host-cells and 1 * 10^3 parasites) with a Multidrop Combi dispenser. […] In all wells, the percentage of DMSO never exceeded 0.5%. Plates incubated for four days at 37C, 5% CO2. The substrate used for the assay fluorescence intensity (FLINT) readout was resorufin-beta-D-galactopiranoside (Sigma-Aldrich) at 5uM per well. It was diluted in PBS supplemented with the soft detergent Igepal (Fluka).; assay type: functional, organism-based, Mus musculus; details: Tulahuen, NIH3T3
Leishmania donovani [6] = experiment: GSK_TCAKS: pIC50 Leishmania donovani viability assay using fluorescence intensity. Assay plates (1536-well) were prepared by adding 30nL per well of compound. For single shot assay, the final compound concentration was 5uM. […] Briefly, eGFP LdBOB axenic amastigotes were harvested, fixed and counted in a CASY cell counter (Roche-Applied Science). A final concentration of 1.5 * 10^5 cells per well were prepared in amastigote media containing 500 U/mL penicillin/streptomycin (Invitrogen) and 6uL was dispensed to each experimental well using a Multidrop Combi dispenser (Thermo Scientific). 6uL of assay media was dispensed to control columns used as reference for 100% compound response. Following incubation for 72 h at 37C, 5% CO2, 2 uL of resazurin was added to each well at a final concentration of 0.5 mM in phosphate buffered saline (PBS) with IGEPAL (Sigma-Aldrich), 0.05% (v/v).; assay type: functional, organism-based
[7] = GSK_TCAKS: pIC50 HepG2 human cell line viability assay using luminiscence. […] Seeding density was checked to ensure that new mono-layers were not more than 50% confluent at the time of harvesting. Cell suspension was added to 500 mL of the same medium at a final density of 1.2 * 10^5 cells/mL. This cell suspension was dispensed (25 uL, 3000 cells per well) into 384-well clear-bottom plates using a Multidrop Combi dispenser. Prior to addition of the cell suspension, the screening compounds (250 nL) were pre-dispensed into the plates with an Echo liquid handler. Plates were incubated for 48 h at 37C, 5% CO2. After incubation, plates equilibrated at room temperature for 30 min before proceeding to develop the luminescent signal. The signal developer, CellTiter-Glo Reagent, was allowed to equilibrate at room temperature for 30 min and added to the plates (25uL per well) using a Multidrop Combi dispenser. Plates were left for 10 min at room temperature for stabilization and then read using a ViewLux.; assay type: toxicity, cell-based
Trypanosoma cruzi [8] = experiment: GSK_TCAKS: pIC50 Trypanosoma cruzi Imaging: Amastigotes/Cell. […] Cells were then washed once with PBS before infection. T. cruzi trypomastigotes, collected at days 5 to 8 after infection from LLC-MK2 parasite infected cultures, were allowed to swim out for 4h at 37C from a centrifuged pellet (2,500 rpm/10 min/room temperature). Trypomastigotes were then collected and counted in a CASY Cell Counter. Trypomastigotes, in supplemented DMEM, were added to H9c2 cultures in a multiplicity of infection of 1 and incubated for 18 h. Cells were washed once with PBS before incubation of the infected H9c2 monolayer with trypsin (Life-Technologies) to detach cells from the flask. Cells were counted in a CASY Cell Counter using a 150 um capillary and their density set at 5 * 10^4 cells per mL in supplemented assay DMEM. Infected H9c2 were dispensed into 384-well poly-lysine coated assay plates at 50uL per well using a Multidrop Combi dispenser. After seeding them, the plates were incubated at 37C, 5% CO2 for 72h. Cultures were then fixed and stained by addition of 50 uL of a solution containing 8% formaldehyde and 4 uM DRAQ5 DNA dye (BioStatus, UK) per well. […] Five images were collected per well for reliable statistical analysis. Automated image analysis was performed with a script developed on Acapella High Content Imaging and Analysis Software (PerkinElmer). Output: number of amastigotes per cell as infection level measurement.; assay type: functional, organism-based, Rattus norvegicus; details: H9c2, 4 h
[9] = target: Sterol 14-alpha demethylase (Trypanosoma cruzi (strain CL Brener), UniProt Q7Z1V1); experiment: GSK_TCAKS: pIC50 CYP51 from Trypanosoma cruzi.; assay type: functional
Sterol 14-alpha demethylase, sequence (Q7Z1V1 whole entry): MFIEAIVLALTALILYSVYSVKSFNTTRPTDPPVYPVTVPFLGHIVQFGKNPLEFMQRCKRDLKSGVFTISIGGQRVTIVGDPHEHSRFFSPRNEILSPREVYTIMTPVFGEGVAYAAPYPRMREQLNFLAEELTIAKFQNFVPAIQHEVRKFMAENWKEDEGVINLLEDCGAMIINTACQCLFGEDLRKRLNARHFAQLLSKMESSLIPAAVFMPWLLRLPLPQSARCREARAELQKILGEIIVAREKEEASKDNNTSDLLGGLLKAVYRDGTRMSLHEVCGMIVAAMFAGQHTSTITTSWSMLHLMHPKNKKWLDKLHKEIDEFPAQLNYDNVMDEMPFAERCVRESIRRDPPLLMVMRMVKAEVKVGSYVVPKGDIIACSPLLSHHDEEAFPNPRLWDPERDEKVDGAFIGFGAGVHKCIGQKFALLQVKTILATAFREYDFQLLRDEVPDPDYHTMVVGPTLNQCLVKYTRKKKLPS

Trypanosoma cruzi [10] = experiment: as §1, with “H2C9” for “Trypanosoma cruzi”, “H9c2 Host Cardiomyocytes.” for “Infected Cells.”, “Number” for “percentage”, “H9c2 Host Cardiomyocytes nuclei to determine drug-related cytotoxicity.” for “infected cells per well as a second infection marker.”; assay type: functional, organism-based, Rattus norvegicus; details: H9c2, 4 h
Leishmania donovani [11] = experiment: GSK_TCAKS: pIC50 Leishmania donovani Imaging: THP-1 Host Macrophages. Assay plates (384-well) were prepared by adding 250nL of compound to each well. For single shot assay, the final compound concentration was 5 uM. […] Automated image analysis was performed with a script developed on Acapella High Content Imaging and Analysis Software (PerkinElmer). Output: THP-1 cell count were reported for each well.; assay type: functional, organism-based, Homo sapiens
[12] = tested on: Trypanosoma brucei brucei; experiment: GSK_TCAKS: pIC50 Trypanosoma brucei viability assay using fluorescence intensity. Assay plates (1536-well) were prepared by dispensing 25nL of compound solution per well using an Echo acoustic dispenser (Labcyte).; assay type: functional, organism-based; details: Lister 427, 2 h

Row | SMILES | IC50 (Leishmania donovani [1]) | IC50 (Leishmania donovani [2]) | IC50 [3] | IC50 (Trypanosoma cruzi [4]) | IC50 (Trypanosoma cruzi [5]) | IC50 (Leishmania donovani [6]) | IC50 at 48 h [7] | IC50 (Trypanosoma cruzi [8]) | IC50 [9] | IC50 (Trypanosoma cruzi [10]) | IC50 (Leishmania donovani [11]) | IC50 [12]
1 | NC(=O)c1cc(F)ccc1Nc1nc(N[C@H]2CC[C@H](O)CC2)ncc1Cl | 1260 nM | 794 nM | 631 nM | 5010 nM | 3980 nM | 3160 nM | > 100000 nM | 1580 nM | 31600 nM | 1580 nM | 631 nM | 158 nM
2 | COc1ccc(Nc2nc(N[C@H]3CC[C@H](O)CC3)ncc2Br)c(C(N)=O)c1 | 1000 nM | 631 nM | 251 nM | 3160 nM | 3980 nM | 3160 nM | > 100000 nM | 2000 nM | 12600 nM | 794 nM | 398 nM | 100 nM
3 | COc1ccc(OC)c(S(=O)(=O)N(Cc2c(F)cccc2F)[C@@H]2CCN(C#N)C2)c1 | 25100 nM | 20000 nM | 794 nM | 12600 nM | 6310 nM | 15800 nM | 79400 nM | 6310 nM | > 100000 nM | 15800 nM | 20000 nM | 631 nM
4 | COc1ccc2ncc(=O)n(CCN3CC[C@H](NCc4ncc(Cl)c5[nH]ncc45)[C@H](O)C3)c2n1 | > 50100 nM | > 50100 nM | 501 nM | 3160 nM | 3980 nM | > 50100 nM | > 100000 nM | 1580 nM | > 100000 nM | > 50100 nM | > 50100 nM | 316 nM
5 | NC(=O)c1ncccc1Nc1nc(N[C@H]2CC[C@H](O)CC2)ncc1Br | 1260 nM | 631 nM | 631 nM | 2000 nM | 1580 nM | 1260 nM | > 100000 nM | 501 nM | > 100000 nM | 631 nM | 398 nM | 316 nM
6 | CCc1cc(C(=O)Nc2nccn2-c2ccccc2)cs1 | 12600 nM | 5010 nM | 3980 nM | 5010 nM | 3160 nM | 6310 nM | > 100000 nM | 3160 nM | > 100000 nM | 20000 nM | 31600 nM | 3160 nM
7 | CC(C)c1cc(Nc2cc(Cc3ccccc3)nc(N[C@H]3CC[C@H](O)CC3)n2)n[nH]1 | 63.1 nM | 39.8 nM | 100 nM | 79.4 nM | 79.4 nM | 3160 nM | 31600 nM | 31.6 nM | 20000 nM | 6.31 nM | 20 nM | 79.4 nM
8 | CS(=O)(=O)N[C@H]1CC[C@H](Nc2ncc(Br)c(Nc3ccccc3C(N)=O)n2)CC1 | 2000 nM | 794 nM | 79.4 nM | 5010 nM | 7940 nM | 1000 nM | > 100000 nM | 2000 nM | > 100000 nM | 501 nM | 501 nM | 158 nM
9 | O=C1NCc2cccc(Nc3nc(N[C@H]4CC[C@H](O)CC4)ncc3Br)c21 | 158 nM | 126 nM | 126 nM | 1000 nM | 631 nM | 794 nM | > 100000 nM | 398 nM | > 100000 nM | 100 nM | 100 nM | 63.1 nM
10 | NS(=O)(=O)c1ccc(Nc2ncc3cccc(OC4CCNCC4)c3n2)cc1 | 20000 nM | 15800 nM | 316 nM | 50.1 nM | 1780 nM | 39800 nM | > 100000 nM | 20 nM | > 100000 nM | 631 nM | 1000 nM | 200 nM
11 | COc1ccc2ncc(=O)n(CCN3CCC(NCc4ccc(-c5cccs5)cc4)CC3)c2n1 | 3160 nM | 1260 nM | 6310 nM | 1580 nM | 2000 nM | 1580 nM | 12600 nM | 158 nM | 25100 nM | 7940 nM | 10000 nM | 3160 nM
